This note sets out measurements from a melting point compilation (Tetko et al.; mined from patent text by program, amines drawn as free bases though some values may be those of a salt).

The melting point is the temperature, or range, at which the solid turns liquid. As to `O=C(O)Cc1ccc(CCNC(=O)C2Cc3ccccc3N2S(=O)(=O)c2ccc(-c3cccc(C(F)(F)F)c3)cc2)cc1` (stereo not drawn), the melting point turned out to be 110 °C.
Then `Cc1ccc(-c2cnn(C)c2)cc1`, with 107 to 108 °C; and `CC(C)(C)OC(=O)Nc1ncc(F)s1`, with 157 to 159 °C.
In the case of `CN1C(=O)CC(Sc2cc(C(C)(C)C)c(O)c(C(C)(C)C)c2)C1=O` (stereo not drawn) it was 132 °C.
Then `Nc1ccn(C2CC(O)C(CO)O2)c(=O)n1` (stereo not drawn), with 208 to 210 °C; and `Cn1nnnc1SCC1=C(C(=O)OCOC(=O)C(C)(C)C)N2C(=O)C(NC(=O)Cc3csc(=O)s3)C2SC1` (stereo not drawn), with 100 °C.
Regarding `Cc1ccc(-c2cc(OCC(=O)N3CCOCC3)c3c(Cl)cccc3n2)cc1`, the melting point amounted to 170 °C.
`CCc1c2nc(-c3cc(S(C)(=O)=O)ccc3OCC(C)C)[nH]c(=O)c2nn1Cc1ccccn1` came in with a melting point of 235 to 238 °C.
`COCC1CN(c2ccc(C3CCCCC3)c(N)c2)C(=O)O1` (racemic) had a melting point of 130 to 132 °C.
Then `CC(C)(C)OC(=O)N1CCOC[C@H]1CC(=O)O`, with 82 °C.
Then `CC(=O)Nc1ccc(Sc2c(-c3ccc(S(C)(=O)=O)cc3)cnn(CC(F)(F)F)c2=O)cc1`, with 191 to 193 °C.
Compound `CCCn1cc(-c2nc(C#N)c(N)nc2-c2ccccc2)ccc1=O` yielded a melting point of 180 to 183 °C.
Then `COc1ccc2c(c1)C(=O)CCC21CCC(=O)N(C)C1=O` (stereo not drawn), with 116 to 118 °C.
For `COc1c(C)cc(C(=O)N2CCN(c3ncccc3NC(C)C)CC2)cc1C`, the melting point is 89 to 93 °C.
Compound `CC(=O)Nc1cc(F)c(OC(F)F)cc1[N+](=O)[O-]` yielded a melting point of 72 to 74 °C.
In the case of `CN(C=O)CCC12CCCn3c1c(c1ccccc13)CCO2` (stereo not drawn), the melting point lay within 111 to 113 °C.
The compound `Cc1ccc(C(=O)S[C@@H](C)C(=O)N2CSC[C@H]2C(=O)O)cc1` registered a melting point of 166 °C.
Then `CCOC(=O)c1nc2ccccc2[nH]c1=O`, with 169 to 170 °C.
In the case of `CC(C)(C)c1ccnc(Oc2ccc(CCNc3ncnc4nccnc34)cc2)c1` it was 156 to 157 °C.
As for `Nc1ccc(N2C(=O)c3cccc([N+](=O)[O-])c3C2=O)cc1`, the melting point amounted to 177 °C.
In the case of `COC(=O)Nc1nc(C)cc(OC)n1` it was 89 to 92.5 °C; in that of `COc1ccc(S(=O)(=O)C(C)(Cc2ccc(OCCN3CCCCCC3)cc2)C(=O)NO)cc1` (stereo not drawn), 68 °C.
Then `CCc1cc(C=O)c2ccc3cccc4ccc1c2c34`, with 134 to 136 °C; and `CCCCO/N=C(\C(=O)On1nnc2ccccc21)c1csc(NC(c2ccccc2)(c2ccccc2)c2ccccc2)n1`, with 100 to 102 °C; and `NC(=O)c1nc(-c2cccc(O)c2)nc2c1[nH]c(=O)n2[C@@H]1CCOC1`, with 353 to 355 °C.
In the case of `CCCCCCCCCCCCC(C(=O)NO)S(=O)(=O)c1ccc(OC)cc1` (stereo not drawn) it was 114 °C.
In the case of `FC(F)(F)c1ccc(CN2CC3(COc4ccc(-c5cccnc5)cc43)c3ccccc32)o1` (stereo not drawn), the melting point lay in the range of 98 to 100 °C.
For `O=c1nc(-c2ccccc2O)oc2ccccc12`, the melting point was in the range of 206 to 208 °C.
Consider `O=C1CN(CCN2CC(=O)N(CN3CCCC3)C(=O)C2)CC(=O)N1CN1CCCC1`, for which the melting point was in the range of 150 to 155 °C.
Then `Fc1ccc2nc[nH]c(=S)c2c1`, with 294 to 297 °C.
In the case of `CC(C)OC(=O)Cn1c(=O)n(C)c(=O)n(-c2cc(N=c3sc(=O)n4n3CCCC4)c(F)cc2Cl)c1=O` it was 97 to 107 °C; in that of `CC(=O)N(C)Nc1ccc(CCn2cnc3cc(-c4ccc(Cl)cc4)sc3c2=O)cc1`, 267 to 268 °C; in that of `COC(=O)c1cc(C#N)cc2c1OC(c1ccccc1)(c1ccccc1)O2`, 141 °C.
In the case of `Cn1ccnc1C(O)(c1ccc(Cl)cc1)c1ccc(Cl)cc1` it was 190 to 191 °C; in that of `CCCCCN(CC(=O)OC(C)(C)C)C(=O)C(CCC(=O)OC)CS(=O)(=O)c1ccc2ccccc2c1` (stereo not drawn), 85 to 87 °C.
In the case of `O=C(O)CCn1c(=O)c2ccccc2n(CCCN2CCC(OC(c3ccccc3)c3ccccc3)CC2)c1=O`, the melting point fell in the range of 150 to 151 °C.
`CC(C)=CCCC(C)=CCCC(C)=CCCC(C)=CC=CC(C)=CC(=O)O` returned a melting point of 45.5 to 46.5 °C.
Then `CCCCN1C(=O)C2C3CCC(O3)C2C1=O` (stereo not drawn), with 82 to 83 °C; and `Cc1cc(N2CCN(C(=O)NCCCCC3CCSS3)CC2)ccc1N=C(N)c1cccs1` (stereo not drawn), with 169 to 171 °C.
In turn, `O=C1CC[C@@H]([N+](=O)[O-])[C@H](c2ccccc2)N1` (relative stereo) registered a melting point of 174 to 175 °C.
In the case of `COC(=O)c1ccc2c(c1)C(=O)C(Cc1cccc(C(=O)O)c1)O2` (stereo not drawn) it was 140 to 143 °C; in that of `CC(C=CC=C(C)CO)=CC=CC=C(C)C1OCC(C)(C)CO1`, 136 to 137 °C; in that of `CC(C)(C)OC(=O)Nc1ccc(-c2cccnc2)cc1[N+](=O)[O-]`, 107 to 109 °C.
On to `CON1C(=O)CC2(CCN(C(=O)OCc3ccccc3)CC2)C1=O`, for which the melting point worked out at 98 °C.
The compound `CN1C(=O)c2c(F)c(F)c(F)c(F)c2C1=O` gave a melting point of 132 °C.
Then `C=CCC(c1ccc(C(O)(C(F)(F)F)C(F)(F)F)cc1)S(=O)(=O)c1ccccc1` (stereo not drawn), with 148 °C; and `Cc1cc(C(=O)NN)ccc1Br`, with 164 to 166 °C; and `Oc1noc2ccc(F)cc12`, with 201 to 203 °C.
Regarding `O[C@@H]1CN(Cc2ccccc2)C[C@H]1Oc1c(Cl)cccc1Cl` (relative stereo), the melting point fell in the range of 78 to 80 °C.
As to `O=C(Cc1ccc2ccccc2c1)Nc1cc(-c2ccncc2)[nH]n1`, the melting point lay in the range of 227 to 235 °C.
In turn, `CC(=O)OCC(=O)c1cc2c(s1)CCC1CC(=O)N(c3ccc(C)cc3)N=C21` (stereo not drawn) had a melting point of 144 to 145 °C.
Turning to `Cn1ccc(C(Cl)Cl)n1`, the melting point is 38.5 to 40 °C.
Take `CC(=O)OC[C@H]1CCn2c(c(C3=C(c4cn(C)c5ccccc45)C(=O)NC3=O)c3ccccc32)C1`: the melting point was in the range of 238 to 241 °C.
Then `Cc1onc(-c2c(Cl)cccc2Cl)c1CSc1ccc(OCC(=O)O)c2c1CCC2`, with 151 to 152 °C; and `CCc1nc2c(cnn2CC)c(NC2CCOCC2)c1CNC(=O)c1cccc(C(=O)NCc2cc(Cl)cc(-c3cccc(CN4CCN(C)CC4)c3)c2)c1`, with 116 to 118 °C.
Then `C#CCOc1nc(N)nc(-c2ccccc2)c1-c1ccc(=O)n(C(C)C)n1`, with 145 to 147 °C.
Then `CSc1nccc(Oc2ccc(NC(=O)c3cc(F)cc(OC4CCCC4)c3)c3ccccc23)n1`, with 115 to 116 °C.
In turn, `CCC1=NN=C(c2ccc(OC)c(OC)c2)c2cc(OC)c(OC)cc2C1C` (stereo not drawn) showed a melting point of 157 to 158 °C.
Then `C1CNCCNCCOCCNCCN1`, with 80 to 81 °C; and `Cc1cccc2c1C=Cc1ccccc1C2O` (stereo not drawn), with 114 to 116 °C.
For the compound `COC(=O)Cc1ccc(CNC(=O)C2Cc3ccccc3N2S(=O)(=O)c2ccc(-c3cccc(C(F)(F)F)c3)cc2)cc1C` (stereo not drawn), the melting point lay within 60 to 67 °C.
In turn, `O=C(Nc1cccc2c1C(=O)c1c-2n[nH]c1-c1ccc(C(=O)N2CCN(CCO)CC2)s1)NN1CCOCC1` came in with a melting point of 186 to 187 °C.
For `NCc1ccccc1CC(=O)O`, the melting point lay within 151 to 155 °C.
In the case of `CCCCS(=O)(=O)NC(=O)c1ccc(C(=O)NCCO)nc1` it was 168 to 169 °C; in that of `CCCSc1csc(C(=O)O)c1S(=O)(=O)NC(C)(C)C`, 123 to 126 °C; in that of `C[C@@H](N[C@@H](Cc1c[nH]c2ccccc12)C(=O)O)[C@H](NC(=O)[C@@H](N)CC(N)=O)C(=O)O`, 65 to 70 °C.
As to `CCc1cccc2c(=O)c3c(cnn3C)[nH]c12`, the melting point was 254 °C.
In the case of `COC(=O)c1cnc(S)n1C1CCCC2CCCCC21` (stereo not drawn) it was 84 to 86 °C.
`CSc1nsc(NC(=O)Oc2ccccc2)c1C#N` had a melting point of 244 to 245 °C.
Take `CC1(C)CCc2c(ccc3c2C(=O)C(Cl)=C(Cl)C3=O)O1`: the melting point lay within 158 to 160 °C.
Then `COc1cc2c(c3c1OC(C)(C)C3)C(c1ccc(NS(C)(=O)=O)cc1)=NC(C)(C)C2`, with 235 to 237 °C.
In the case of `OCCOCn1cc(I)c2c(Cl)ncnc21` it was 154 to 155 °C; in that of `CN1CCN(Cc2cccc(OCc3ccc4ccccc4n3)c2)CC1`, 47 to 49 °C.
Compound `CC(=O)Nc1cc2cc(N)ccc2oc1=O` registered a melting point of 250 to 252 °C.
In turn, `CCOC(=O)c1cccc2nc(CNC)n(Cc3ccc(-c4ccccc4-c4nnn[nH]4)cc3)c12` returned a melting point of 248 to 250 °C.
Then `CS(=O)c1ccc(C2=C(c3cccc(F)c3)C(=O)C(C)(C)O2)cc1F` (stereo not drawn), with 148 to 149 °C; and `CCOC(=O)c1cnc2n(c1=O)CCC2`, with 59 to 60 °C.
Then `NC(=O)N1C(=O)Cc2ccc(-c3ccccc3)cc21`, with 188 to 189 °C.
In the case of `Cc1oc(-c2ccccc2)nc1COc1ccc(COc2ncccc2C=CC(=O)O)cc1` it was 174 to 175 °C.
`COC(=O)[C@@H]1CCCN1S(=O)(=O)c1ccc(Cl)c(COc2cccc3ccc(C)nc23)c1Cl`: the melting point was 136 °C.
In turn, `Cc1cccc(S(=O)(=O)n2ccnc2)c1C#N` had a melting point of 93 to 95 °C.
Then `COc1nc(NC(=O)NS(=O)(=O)c2ccccc2OC(F)F)nc(NC(C)(C)C)n1`, with 213 to 214 °C; and `CCOC(=O)Cn1c(CC)nc2nc3cc(Cl)ccc3nc21`, with 174 to 175 °C; and `OC1CSC(Oc2ccc(-c3ccc(Cl)nc3)nc2)C(O)C1O` (stereo not drawn), with 170 °C.
In turn, `CCCc1c(OCCCCCC(=O)c2ccc3cc(OC)c(OC)cc3c2)ccc(C(=O)OC)c1O` displayed a melting point of 111 to 112 °C.
In the case of `O=C(C=Cc1ccco1)NCCCCCC(=O)NO` it was 151 to 152 °C; in that of `O=C(CCC1CCCC1)N1CCN(C(=O)c2cc(C(F)(F)F)cc(C(F)(F)F)c2)[C@H](Cc2c[nH]c3ccccc23)C1`, 180 to 183 °C; in that of `COC(=O)c1cc(C(=O)c2ccc(OC)c(C(=O)OC)c2)ccc1OC`, 142 to 144 °C.
